Experimental data reported in publication PMC3222310, “Purification and characterization of hydroquinone dioxygenase from Sphingomonas sp. strain TTNP3” (AMB Express, 2011).

Assays:
[1] = biological target: T1, hydroquinone dioxygenase (HQDO) from Sphingomonas sp. strain TTNP3 (Sphingomonas sp. TTNP3, UniProt F8TW82+F8TW83); experiment: residual activity on HQ with inhibitor; type: biochemical
T1 construct: gene hqdB; native enzyme purified from nonylphenol-induced cells; untagged; alpha2beta2 heterotetramer, 120 kDa by SEC, bands 38 kDa and 19 kDa; b63 order implies HqdA small and HqdB large, abstract order of identities contradicts
T1 sequence (F8TW83 1-341): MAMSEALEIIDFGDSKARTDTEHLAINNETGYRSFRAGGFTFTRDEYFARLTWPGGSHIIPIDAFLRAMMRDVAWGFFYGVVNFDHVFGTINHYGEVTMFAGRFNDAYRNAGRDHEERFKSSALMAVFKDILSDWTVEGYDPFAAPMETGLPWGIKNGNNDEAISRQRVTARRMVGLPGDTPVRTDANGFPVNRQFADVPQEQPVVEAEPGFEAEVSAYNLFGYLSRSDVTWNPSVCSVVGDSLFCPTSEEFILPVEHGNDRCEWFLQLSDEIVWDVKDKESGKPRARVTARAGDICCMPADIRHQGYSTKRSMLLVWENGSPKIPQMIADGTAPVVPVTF
T1 sequence (F8TW82 1-170): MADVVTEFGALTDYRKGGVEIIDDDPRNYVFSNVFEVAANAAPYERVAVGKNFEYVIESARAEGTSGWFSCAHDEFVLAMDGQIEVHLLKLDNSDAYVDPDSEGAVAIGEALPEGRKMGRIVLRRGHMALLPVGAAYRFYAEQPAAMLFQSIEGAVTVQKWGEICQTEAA
From the text: residual activity on HQ with inhibitor on hydroquinone dioxygenase (HQDO) from Sphingomonas sp. strain TTNP3

[2] = substrate: Oc1ccc(O)cc1; experiment: purified protein; type: biochemical, Sphingomonas sp. TTNP3; conditions: air-saturated 50 mM Tris, pH 7.0, 25°C, kcat per heterotetramer, suicide deactivation by substrate

Row | activity at 200 µM [1] [%] | Molecule | other results
1 | 94 ± 4.6 | O=C(O)c1ccc(O)c(O)c1 [3,4-Dihydroxybenzoate] | –
2 | 97 ± 1.9 | O=C(O)/C=C/c1ccc(O)cc1 [4-Coumaric acid] | –
3 | 46 ± 0.4 | O=C(O)c1ccc(O)cc1 [4-Hydroxybenzoate] | –
4 | – | N#CCc1ccc(O)cc1 [4-Hydroxybenzylcyanide] | Activity (%) ([1]; 2 µM, substrate HQ, compound named 4-hydroxybenzonitrile in text, 4-hydroxybenzylcyanide in table): 16 ± 0.2%
5 | – | Oc1ccc(S)cc1 [4-Mercaptophenol] | activity at 20 µM [1]: 5%
6 | – | O=C1C=CC(=O)C=C1 [Benzoquinone] | activity at 20 µM [1]: 16 ± 0.3%
7 | – | O=C(O)/C=C/c1ccc(O)c(O)c1 [Caffeic acid] | activity at 80 µM [1]: 98 ± 2.5%
8 | 99 ± 0.5 | Oc1cccc(O)c1 [Resorcinol] | –
9 | 86 ± 1 | COc1cc(C(=O)O)ccc1O [Vanillate] | –
10 | – | COc1cc(C=O)ccc1O [Vanillin] | activity at 100 µM [1]: 18 ± 7.4%
11 | 62 ± 1 | COc1cc(CO)ccc1O [Vanillyl alcohol] | –
12 | – | hydroquinone dioxygenase (HQDO) from Sphingomonas sp. strain TTNP3 (Sphingomonas sp. TTNP3) (protein, native enzyme purified from nonylphenol-induced cells; untagged; alpha2beta2 heterotetramer, 120 kDa by SEC, bands 38 kDa and 19 kDa; b63 order implies HqdA small and HqdB large, abstract order of identities contradicts) chain 1: MAMSEALEIIDFGDSKARTDTEHLAINNETGYRSFRAGGFTFTRDEYFARLTWPGGSHIIPIDAFLRAMMRDVAWGFFYGVVNFDHVFGTINHYGEVTMFAGRFNDAYRNAGRDHEERFKSSALMAVFKDILSDWTVEGYDPFAAPMETGLPWGIKNGNNDEAISRQRVTARRMVGLPGDTPVRTDANGFPVNRQFADVPQEQPVVEAEPGFEAEVSAYNLFGYLSRSDVTWNPSVCSVVGDSLFCPTSEEFILPVEHGNDRCEWFLQLSDEIVWDVKDKESGKPRARVTARAGDICCMPADIRHQGYSTKRSMLLVWENGSPKIPQMIADGTAPVVPVTF chain 2: MADVVTEFGALTDYRKGGVEIIDDDPRNYVFSNVFEVAANAAPYERVAVGKNFEYVIESARAEGTSGWFSCAHDEFVLAMDGQIEVHLLKLDNSDAYVDPDSEGAVAIGEALPEGRKMGRIVLRRGHMALLPVGAAYRFYAEQPAAMLFQSIEGAVTVQKWGEICQTEAA | Km [2]: 2.2 ± 0.2 µM; kcat [2]: 13.5 s⁻¹

Row | Molecule | activity at 200 µM [1] [%] | other results
13 | O=[N+]([O-])c1ccc(O)cc1 [4-Nitrophenol] | 27 ± 1.2 | –
14 | Oc1ccccc1O [Catechol] | 93 ± 1.3 | –
15 | Oc1ccccc1 [Phenol] | 98 ± 1.7 | –
